Reference: ChEMBL document CHEMBL3885881, “DrugMatrix”

Species on record: Rattus norvegicus
Assay: DrugMatrix - Regimen: Daily Repeat
Type: toxicity, organism-based, Sprague-Dawley
Set-up: regimen Daily Repeat, gender Male, age 6-8 weeks
Conditions: in vivo, po, route oral GAVAGE, vehicle .5 % CMC; for URIC ACID / ALANINE AMINOTRANSFERASE / ALBUMIN / ALKALINE PHOSPHATASE / ASPARTATE AMINOTRANSFERASE / BLOOD UREA NITROGEN / CARBON DIOXIDE / CHLORIDE / CHOLESTEROL / CREATINE PHOSPHOKINASE / CREATININE / GLUCOSE / LACTATE DEHYDROGENASE / LIPASE / PHOSPHORUS / POTASSIUM / SODIUM / TOTAL BILIRUBIN / TOTAL PROTEIN: tissue Plasma; for ABSOLUTE BASOPHIL / ABSOLUTE EOSINOPHIL / ABSOLUTE LYMPHOCYTE / ABSOLUTE MONOCYTE / ABSOLUTE SEGMENTED NEUTROPHIL / BASOPHIL / EOSINOPHIL / ERYTHROCYTE COUNT / HEMATOCRIT / HEMOGLOBIN / LEUKOCYTE COUNT / LYMPHOCYTE / MEAN CORPUSCULAR HEMOGLOBIN / MEAN CORPUSCULAR HEMOGLOBIN CONCENTRATION / MEAN CORPUSCULAR VOLUME / MONOCYTE / NEUTROPHIL / NUCLEATED RED BLOOD CELLS / PLATELET COUNT: tissue Blood
[1] = 250 mg/kg, 120 h, dose level High, time 5 day
[2] = […], 72 h, dose 0.25 mg/Kg, dose level Low, time 3 day
[3] = […], 120 h, dose 0.25 mg/Kg, dose level Low, time 5 day

C#C[C@]1(O)CC[C@H]2[C@@H]3CCc4cc(OC)ccc4[C@H]3CC[C@@]21C [MESTRANOL]
URIC ACID (250 mg/kg, 72 h, dose level High, time 3 day): 1.23 mg/dL | ABSOLUTE BASOPHIL [1]: 0 CELLS/uL | ABSOLUTE EOSINOPHIL [1]: 0 CELLS/uL | ABSOLUTE LYMPHOCYTE [1]: 11929 CELLS/uL | ABSOLUTE MONOCYTE [1]: 0 CELLS/uL | ABSOLUTE SEGMENTED NEUTROPHIL [1]: 1137.67 CELLS/uL | BASOPHIL [1]: 0% | EOSINOPHIL [1]: 0% | ERYTHROCYTE COUNT [1]: 6.07 x10E6/uL | HEMATOCRIT [1]: 37.27% | HEMOGLOBIN [1]: 14.37 G/DL | LEUKOCYTE COUNT [1]: 13.07 x10E3/uL | LYMPHOCYTE [1]: 91.33% | MEAN CORPUSCULAR HEMOGLOBIN [1]: 23.67 pg | MEAN CORPUSCULAR HEMOGLOBIN CONCENTRATION [1]: 38.53 G/DL | MEAN CORPUSCULAR VOLUME [1]: 61.37 fL | MONOCYTE [1]: 0% | NEUTROPHIL [1]: 8.67% | NUCLEATED RED BLOOD CELLS [1]: 0 /100WBC | PLATELET COUNT [1]: 1600 x10E3/uL | ALANINE AMINOTRANSFERASE [1]: 72.67 u/L | ALBUMIN [1]: 4.13 G/DL | ALKALINE PHOSPHATASE [1]: 667.33 u/L | ASPARTATE AMINOTRANSFERASE [1]: 77.67 u/L | BLOOD UREA NITROGEN [1]: 14.67 mg/dL | CARBON DIOXIDE [1]: 23.67 mmol/L | CHLORIDE [1]: 102 MEQ/L | CHOLESTEROL [1]: 4.67 mg/dL | CREATINE PHOSPHOKINASE [1]: 223.67 u/L | CREATININE [1]: 0.14 mg/dL | GLUCOSE [1]: 117 mg/dL | LACTATE DEHYDROGENASE [1]: 394.67 u/L | LIPASE [1]: 7.33 u/L | PHOSPHORUS [1]: 10.63 mg/dL | POTASSIUM [1]: 6.65 MEQ/L | SODIUM [1]: 145.1 MEQ/L | TOTAL BILIRUBIN [1]: 0.13 mg/dL | URIC ACID [1]: 1.63 mg/dL | ABSOLUTE BASOPHIL [2]: 0 CELLS/uL | ABSOLUTE EOSINOPHIL [2]: 68.33 CELLS/uL | ABSOLUTE LYMPHOCYTE [2]: 15182.67 CELLS/uL | ABSOLUTE MONOCYTE [2]: 0 CELLS/uL | ABSOLUTE SEGMENTED NEUTROPHIL [2]: 1349 CELLS/uL | BASOPHIL [2]: 0% | EOSINOPHIL [2]: 0.33% | ERYTHROCYTE COUNT [2]: 5.73 x10E6/uL | HEMATOCRIT [2]: 36.73% | HEMOGLOBIN [2]: 14.03 G/DL | LEUKOCYTE COUNT [2]: 16.6 x10E3/uL | LYMPHOCYTE [2]: 91.67% | MEAN CORPUSCULAR HEMOGLOBIN [2]: 24.5 pg | MEAN CORPUSCULAR HEMOGLOBIN CONCENTRATION [2]: 38.17 G/DL | MEAN CORPUSCULAR VOLUME [2]: 64.17 fL | MONOCYTE [2]: 0% | NEUTROPHIL [2]: 8% | NUCLEATED RED BLOOD CELLS [2]: 0 /100WBC | PLATELET COUNT [2]: 1226 x10E3/uL | ALANINE AMINOTRANSFERASE [2]: 51.33 u/L | ALBUMIN [2]: 4.37 G/DL | ALKALINE PHOSPHATASE [2]: 522.67 u/L | ASPARTATE AMINOTRANSFERASE [2]: 83.67 u/L | BLOOD UREA NITROGEN [2]: 12.67 mg/dL | CARBON DIOXIDE [2]: 28 mmol/L | CHLORIDE [2]: 101.67 MEQ/L | CHOLESTEROL [2]: 36 mg/dL | CREATINE PHOSPHOKINASE [2]: 348.33 u/L | CREATININE [2]: 0.27 mg/dL | GLUCOSE [2]: 135.67 mg/dL | LACTATE DEHYDROGENASE [2]: 453.33 u/L | LIPASE [2]: 7.67 u/L | PHOSPHORUS [2]: 11.2 mg/dL | POTASSIUM [2]: 6.61 MEQ/L | SODIUM [2]: 145.07 MEQ/L | TOTAL BILIRUBIN [2]: 0.23 mg/dL | TOTAL PROTEIN [2]: 6.23 G/DL | URIC ACID [2]: 1.33 mg/dL | ABSOLUTE BASOPHIL [3]: 0 CELLS/uL | ABSOLUTE EOSINOPHIL [3]: 139.33 CELLS/uL | ABSOLUTE LYMPHOCYTE [3]: 14510.33 CELLS/uL | ABSOLUTE MONOCYTE [3]: 98 CELLS/uL | ABSOLUTE SEGMENTED NEUTROPHIL [3]: 652.33 CELLS/uL | BASOPHIL [3]: 0% | EOSINOPHIL [3]: 1% | ERYTHROCYTE COUNT [3]: 5.62 x10E6/uL | HEMATOCRIT [3]: 35.57% | HEMOGLOBIN [3]: 14.03 G/DL | LEUKOCYTE COUNT [3]: 15.4 x10E3/uL | LYMPHOCYTE [3]: 94.33% | MEAN CORPUSCULAR HEMOGLOBIN [3]: 25.13 pg | MEAN CORPUSCULAR HEMOGLOBIN CONCENTRATION [3]: 39.5 G/DL | MEAN CORPUSCULAR VOLUME [3]: 63.6 fL | MONOCYTE [3]: 0.67% | NEUTROPHIL [3]: 4% | NUCLEATED RED BLOOD CELLS [3]: 0 /100WBC | PLATELET COUNT [3]: 1110.33 x10E3/uL | ALANINE AMINOTRANSFERASE [3]: 49.33 u/L | ALBUMIN [3]: 3.97 G/DL | ALKALINE PHOSPHATASE [3]: 553.33 u/L | ASPARTATE AMINOTRANSFERASE [3]: 70.67 u/L | BLOOD UREA NITROGEN [3]: 19.33 mg/dL | CARBON DIOXIDE [3]: 26.67 mmol/L | CHLORIDE [3]: 102.67 MEQ/L | CHOLESTEROL [3]: 31.33 mg/dL | CREATINE PHOSPHOKINASE [3]: 297.67 u/L | CREATININE [3]: 0.26 mg/dL | GLUCOSE [3]: 141.33 mg/dL | LACTATE DEHYDROGENASE [3]: 123.67 u/L | LIPASE [3]: 7.33 u/L | PHOSPHORUS [3]: 11.23 mg/dL | POTASSIUM [3]: 6.54 MEQ/L | SODIUM [3]: 144.33 MEQ/L | TOTAL BILIRUBIN [3]: 0.27 mg/dL | TOTAL PROTEIN [3]: 6 G/DL | URIC ACID [3]: 1.13 mg/dL
